We go through four molecules from PMC12443583 (Nature Medicine, 2025).

SMILES strings stand for the structures.

One data set has as its system p-ERK (Thr185–Try187). Kind of data set: p-ERK in tumor biopsies, antibody bead-based Luminex. It is filed as in vivo, human. The following applies: post-treatment versus pretreatment biopsy.
Another data set deals with p-MEK (Ser222). Kind of data set: p-MEK in tumor biopsies, antibody bead-based Luminex. The format is in vivo, human. The settings on record: post-treatment versus pretreatment biopsy.
The test system of another data set is LGSOC. The following applies: 23 (binimetinib), cited from earlier work; for progression-free interval / response rate: phase 2 and phase 3 trials, ref 24 (selumetinib), 25 (trametinib); for discontinuation rates because of AEs: ref 25 (trametinib).

Regarding `CNS(=O)(=O)Nc1nccc(Cc2c(C)c3ccc(Oc4ncccn4)cc3oc2=O)c1F` [avutometinib], the “phosphorylation of p-ERK in tumor biopsies” value in the data set with p-ERK (Thr185–Try187) is “reduction”. For the same molecule, the “phosphorylation of p-MEK in tumor biopsies” value in the data set on p-MEK (Ser222) was “reduction”.
Consider `Cn1cnc2c(F)c(Nc3ccc(Br)cc3F)c(C(=O)NOCCO)cc21` [binimetinib], for which, in the data set with LGSOC, the progression-free interval is on record as 9.1 months, the response rate is 16% and the “discontinuation rates because of AEs” value is given as 31%.
Regarding `Cn1cnc2c(F)c(Nc3ccc(Br)cc3Cl)c(C(=O)NOCCO)cc21` [selumetinib], in the data set with LGSOC, the progression-free interval is 11 months and the response rate is given as 15%.
Turning to `CC(=O)Nc1cccc(-n2c(=O)n(C3CC3)c(=O)c3c(Nc4ccc(I)cc4F)n(C)c(=O)c(C)c32)c1` [trametinib], in the data set on LGSOC, the progression-free interval is reported as 13 months, the response rate is reported as 26% and the “discontinuation rates because of AEs” value was 36%.
